Values after ≈ are worked out from the molar mass of the structure shown. Read-outs that look alike come from different tables or passages of the source.
What was measured:
in vivo [1] = conditions: Balb/c, mouse, po
Procedure: (§1) The doses were prepared as 2.0 mg/mL or 10.0 mg/mL in a vehicle of 0.5% (w/v) carboxymethyl cellulose in water and a dose volume of 10 mL/kg b.w. Blood samples were collected at various time points during the next 6 h post dose.

Dynamic vapor sorption = type: physicochemical
Procedure: The new physical form, Form I of CEM-101 is a crystalline form which may be described by its X-ray powder diffraction pattern. Peaks at approximate positions of about °2θ=8.8, 10.5, 13.2 and 18.6 are representative of this crystalline form. A more detailed analysis of the peaks is described in Tables 1-2 below. […] Water determination by Karl Fisher titration in typical lots is 0.6 to 1.1%. […] Form I of CEM-101 melts at about 200° C. by DSC analysis.
The new physical form, Form II of CEM-101 is a crystalline form which may be described by its X-ray powder diffraction pattern. Peaks at approximate positions of about °2θ=5.6, 7.9, 9.3, 11.7, 12.9 and 16.7 are representative of this crystalline form. A more detailed analysis of the peaks is described in Tables 3-4 below. Based on a single crystal X-ray determination and dynamic vapor sorption analysis, Form II appears to be a non-hygroscopic anhydrous crystalline form that melts at about 225° C. as a single endothermic event by DSC analysis. It is appreciated herein that non-hygroscopic solids, such as Form II described herein, may be advantageous in the preparation of pharmaceutical compositions. Such advantages include improved handling and stability properties in manufacturing, improved lot to lot quality control.

[2] = Balb/c, mouse, in vivo, po, 20 mg/kg
Procedure: as §1

physchem [3] = conditions: 26 °C, thermodynamic from solid
physchem [4] = conditions: pH 6.03, saline or isotonic, thermodynamic from solid
[5] = Stability of Form I and Form II under various storage conditions; type: physicochemical; conditions: during the entire study, all storage conditions
Source text: In each case, the test material was first placed in Primary Packaging Material (LLDPE bag within a HMHDPE/LDPE/LDPE blend bag, and then heat sealed). The Primary Packaging Material was placed in Secondary Packaging Material (HDPE drum). All other impurities were less than 1% at each time point.

[6] = female, Balb/c, mouse, in vivo, po
in vivo [7] = conditions: female, Balb/c, mouse, po; for AUC(0-t): AUC 0-24; for half-life: t½

AUC(0-inf) (in vivo [1]; female, 20 mg/kg): 70000 ng·h/mL | AUC(0-t) (in vivo [1]; female, 20 mg/kg): 53000 ng·h/mL | Cmax (in vivo [1]; female, 20 mg/kg): 13600 ng/mL | Tmax (in vivo [1]; female, 20 mg/kg): 0.5 h | concentration at 0 h (in vivo [1]; female, 20 mg/kg): 0 ng/mL | concentration at 0.25 h (in vivo [1]; female, 20 mg/kg): 8200 ± 2400 ng/mL | concentration at 0.5 h (in vivo [1]; female, 20 mg/kg): 13600 ± 2000 ng/mL | concentration at 1 h (in vivo [1]; female, 20 mg/kg): 12000 ± 1700 ng/mL | concentration at 2 h (in vivo [1]; female, 20 mg/kg): 11300 ± 1400 ng/mL | concentration at 4 h (in vivo [1]; female, 20 mg/kg): 7700 ± 700 ng/mL | concentration at 6 h (in vivo [1]; female, 20 mg/kg): 4200 ± 400 ng/mL | AUC(0-t) (in vivo [1]; female, 100 mg/kg): 91000 ng·h/mL | Cmax (in vivo [1]; female, 100 mg/kg): 19500 ng/mL | Tmax (in vivo [1]; female, 100 mg/kg): 6 h | concentration at 0 h (in vivo [1]; female, 100 mg/kg): 0 ng/mL | concentration at 0.25 h (in vivo [1]; female, 100 mg/kg): 11900 ± 1700 ng/mL | concentration at 0.5 h (in vivo [1]; female, 100 mg/kg): 11600 ± 1600 ng/mL | concentration at 1 h (in vivo [1]; female, 100 mg/kg): 14700 ± 2300 ng/mL | concentration at 2 h (in vivo [1]; female, 100 mg/kg): 14100 ± 2900 ng/mL | concentration at 4 h (in vivo [1]; female, 100 mg/kg): 16000 ± 2300 ng/mL | concentration at 6 h (in vivo [1]; female, 100 mg/kg): 19500 ± 2300 ng/mL | AUC(0-inf) (in vivo [1]; male, 20 mg/kg): 46000 ng·h/mL | AUC(0-t) (in vivo [1]; male, 20 mg/kg): 35000 ng·h/mL | Cmax (in vivo [1]; male, 20 mg/kg): 9500 ng/mL | Tmax (in vivo [1]; male, 20 mg/kg): 1 h | concentration at 0 h (in vivo [1]; male, 20 mg/kg): 0 ng/mL | concentration at 0.25 h (in vivo [1]; male, 20 mg/kg): 5300 ± 1800 ng/mL | concentration at 0.5 h (in vivo [1]; male, 20 mg/kg): 7700 ± 1600 ng/mL | concentration at 1 h (in vivo [1]; male, 20 mg/kg): 9500 ± 900 ng/mL | concentration at 2 h (in vivo [1]; male, 20 mg/kg): 6400 ± 800 ng/mL | concentration at 4 h (in vivo [1]; male, 20 mg/kg): 5900 ± 600 ng/mL | concentration at 6 h (in vivo [1]; male, 20 mg/kg): 2600 ± 800 ng/mL | AUC(0-t) (in vivo [1]; male, 100 mg/kg): 83500 ng·h/mL | Cmax (in vivo [1]; male, 100 mg/kg): 17400 ng/mL | Tmax (in vivo [1]; male, 100 mg/kg): 4 h | concentration at 0 h (in vivo [1]; male, 100 mg/kg): 0 ng/mL | concentration at 0.25 h (in vivo [1]; male, 100 mg/kg): 11300 ± 2500 ng/mL | concentration at 0.5 h (in vivo [1]; male, 100 mg/kg): 10700 ± 3000 ng/mL | concentration at 1 h (in vivo [1]; male, 100 mg/kg): 13100 ± 3200 ng/mL | concentration at 2 h (in vivo [1]; male, 100 mg/kg): 13400 ± 3100 ng/mL | concentration at 4 h (in vivo [1]; male, 100 mg/kg): 17400 ± 2900 ng/mL | concentration at 6 h (in vivo [1]; male, 100 mg/kg): 12000 ± 2000 ng/mL | hygroscopicity (Dynamic vapor sorption): partially hygroscopic | AUCextrap ([2]; female): 24% | AUCextrap ([2]; male): 24% | solubility at 6 h (physchem [3]; pH 1.2, simulated gastric fluid): 4810 µg/mL (≈ 5690 µM) | solubility at 6 h (physchem [3]; pH 4, aqueous buffer): 4660 µg/mL (≈ 5510 µM) | solubility at 6 h (physchem [3]; pH 7.4, aqueous buffer): 2220 µg/mL (≈ 2630 µM) | solubility at 6 h (physchem [3]; pH 9.2, aqueous buffer): 1750 µg/mL (≈ 2070 µM) | solubility at 6 h (physchem [4]): 1410 µg/mL (≈ 1670 µM) | change in color of the test material [5]: no observed change in color | AUC 0-24 ([6]; 5 mg/kg): 3.30 | Cmax ([6]; 5 mg/kg): 1430 ng/mL | Tmax ([6]; 5 mg/kg): 0.6 h | t½ ([6]; 5 mg/kg): 1.32 h | AUC 0-24 ([6]; 10 mg/kg): 17.7 | Cmax ([6]; 10 mg/kg): 4680 ng/mL | Tmax ([6]; 10 mg/kg): 2.4 h | t½ ([6]; 10 mg/kg): 3.6 h | AUC 0-24 ([6]; 20 mg/kg): 26.2 | Cmax ([6]; 20 mg/kg): 6640 ng/mL | Tmax ([6]; 20 mg/kg): 1.6 h | t½ ([6]; 20 mg/kg): 2.1 h | AUC(0-t) (in vivo [7]; 5 mg/kg): 3160 ng·h/mL | Cmax (in vivo [7]; 5 mg/kg): 1540 ng/mL | Tmax (in vivo [7]; 5 mg/kg): 0.5 h | half-life (in vivo [7]; 5 mg/kg): 1.32 h | AUC(0-t) (in vivo [7]; 10 mg/kg): 17200 ng·h/mL | Cmax (in vivo [7]; 10 mg/kg): 4090 ng/mL | Tmax (in vivo [7]; 10 mg/kg): 2 h | half-life (in vivo [7]; 10 mg/kg): 2.95 h | AUC(0-t) (in vivo [7]; 20 mg/kg): 26700 ng·h/mL | Cmax (in vivo [7]; 20 mg/kg): 5910 ng/mL | Tmax (in vivo [7]; 20 mg/kg): 2 h | half-life (in vivo [7]; 20 mg/kg): 1.91 h
Structure (SMILES): CC[C@H]1OC(=O)[C@@](C)(F)C(=O)[C@H](C)[C@@H](O[C@@H]2O[C@H](C)C[C@H](N(C)C)[C@H]2O)[C@](C)(OC)C[C@@H](C)C(=O)[C@H](C)[C@H]2N(CCCCn3cc(-c4cccc(N)c4)nn3)C(=O)O[C@]12C [Form I, solithromycin]

From US8759500B2, “Crystalline forms of a macrolide, and uses therefor” (Cempra Pharmaceuticals, Inc., priority 2010, dated 2014)
